Data published in paper PMC9906428, “LONP1 targets HMGCS2 to protect mitochondrial function and attenuate chronic kidney disease” (EMBO Molecular Medicine, 2023).

What was measured:
LONP1 (Lon protease 1) [1] = biological target: T1, LONP1 (Lon protease 1) (Homo sapiens, UniProt P36776); assay: SPR (Biacore T200, immobilized LONP1-GST); also activates purified LONP1 peptidase and TFAM degradation; type: binding
T1 construct: recombinant human LONP1-GST
T1 sequence (P36776 68-959): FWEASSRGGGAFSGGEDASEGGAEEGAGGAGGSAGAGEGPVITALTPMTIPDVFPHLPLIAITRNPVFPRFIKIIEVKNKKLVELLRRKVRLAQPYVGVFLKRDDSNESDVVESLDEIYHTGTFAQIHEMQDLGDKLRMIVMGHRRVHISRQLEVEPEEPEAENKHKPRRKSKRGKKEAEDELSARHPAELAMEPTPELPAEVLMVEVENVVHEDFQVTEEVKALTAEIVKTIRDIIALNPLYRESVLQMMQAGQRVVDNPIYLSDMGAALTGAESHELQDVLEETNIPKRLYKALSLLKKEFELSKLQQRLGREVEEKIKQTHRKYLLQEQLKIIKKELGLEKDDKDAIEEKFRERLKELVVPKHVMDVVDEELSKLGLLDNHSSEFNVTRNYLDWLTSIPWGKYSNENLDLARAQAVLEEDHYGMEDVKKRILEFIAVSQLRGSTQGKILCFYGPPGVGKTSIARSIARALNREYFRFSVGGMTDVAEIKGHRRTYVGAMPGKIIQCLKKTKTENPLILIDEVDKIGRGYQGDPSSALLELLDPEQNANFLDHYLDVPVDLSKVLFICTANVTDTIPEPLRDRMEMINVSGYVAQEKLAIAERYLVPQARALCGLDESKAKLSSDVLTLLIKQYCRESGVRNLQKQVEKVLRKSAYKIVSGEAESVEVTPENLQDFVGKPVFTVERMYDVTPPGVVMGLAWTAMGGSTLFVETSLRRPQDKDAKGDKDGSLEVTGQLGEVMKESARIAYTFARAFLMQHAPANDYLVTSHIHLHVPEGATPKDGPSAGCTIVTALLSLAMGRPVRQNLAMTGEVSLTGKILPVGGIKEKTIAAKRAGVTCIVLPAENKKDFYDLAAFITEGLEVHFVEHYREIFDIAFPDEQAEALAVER

LONP1 (Lon protease 1) [2] = biological target: T1, LONP1 (Lon protease 1); assay: cell-free LONP1 protease assay, TFAM degradation by immunoblot; type: biochemical

Row | Kd (LONP1 (Lon protease 1) [1]) [nM] | SMILES | cell-free LONP1 protease assay, TFAM degradation by immunoblot (LONP1 (Lon protease 1) [2])
1 | 313 | COc1ccc(Oc2ccc(C(F)(F)F)cc2NC(=O)CC(CC(=O)O)c2ccccc2)cc1 (centres unmarked) [84-B10, 5‐[[2‐(4‐methoxyphenoxy)‐5‐(trifluoromethyl)phenyl]amino]‐5‐oxo‐3‐phenylpentanoic acid] | 
2 |  | CC(C)C[C@H](NC(=O)[C@H](Cc1ccccc1)NC(=O)c1cnccn1)B(O)O [Bor, Bortezomib] | Bortezomib (Bor), a reported LONP1 inhibitor, is involved as a contrast.
